Measured values: the CheMixHub viscosity set
± gives the uncertainty stated by the source.

Assay: xn = mol fraction of the nth substance listed

C=C(C)C(=O)OC + COCCO
viscosity [mPa·s], 101.3 kPa
Settings	298.15 K	308.15 K
x1 = 0.0557	1.449 ± 0.009	1.149 ± 0.008
x1 = 0.1541	1.237 ± 0.008	1.01 ± 0.007
x1 = 0.2554	1.068 ± 0.007	0.892 ± 0.006
x1 = 0.3538	0.941 ± 0.006	0.799 ± 0.006
x1 = 0.4561	0.836 ± 0.006	0.72 ± 0.005
x1 = 0.4992	0.799 ± 0.005	0.691 ± 0.005
x1 = 0.553	0.759 ± 0.005	0.658 ± 0.005
x1 = 0.6543	0.696 ± 0.005	0.606 ± 0.004
x1 = 0.7542	0.65 ± 0.005	0.564 ± 0.004
x1 = 0.8539	0.616 ± 0.004	0.529 ± 0.004
x1 = 0.9543	0.592 ± 0.004	0.502 ± 0.004

C=C(C)C(=O)OC + CCCCCCCO
viscosity [mPa·s], 101.3 kPa
Settings	298.15 K	308.15 K
x1 = 0.0526	4.782 ± 0.029	3.544 ± 0.022
x1 = 0.1258	3.728 ± 0.023	2.828 ± 0.017
x1 = 0.2484	2.538 ± 0.016	1.991 ± 0.013
x1 = 0.3455	1.926 ± 0.012	1.546 ± 0.01
x1 = 0.4471	1.483 ± 0.01	1.213 ± 0.008
x1 = 0.5009	1.307 ± 0.009	1.078 ± 0.007
x1 = 0.5615	1.143 ± 0.008	0.95 ± 0.006
x1 = 0.6456	0.965 ± 0.006	0.81 ± 0.006
x1 = 0.7444	0.811 ± 0.006	0.685 ± 0.005
x1 = 0.8476	0.695 ± 0.005	0.588 ± 0.004
x1 = 0.9438	0.618 ± 0.004	0.522 ± 0.004

ClCCCCCCCl + Cc1cc(C)cc(C)c1
viscosity [mPa·s], 101 kPa
Settings	x1 = 0.1049	x1 = 0.2004	x1 = 0.2961	x1 = 0.4028	x1 = 0.4994	x1 = 0.5986	x1 = 0.7	x1 = 0.7998	x1 = 0.9005
308.15 K	0.645 ± 0.014	0.714 ± 0.015	0.798 ± 0.017	0.896 ± 0.019	0.995 ± 0.021	1.106 ± 0.024	1.221 ± 0.026	1.352 ± 0.029	1.488 ± 0.032
313.15 K	0.615 ± 0.013	0.678 ± 0.015	0.752 ± 0.016	0.842 ± 0.018	0.929 ± 0.02	1.031 ± 0.022	1.137 ± 0.024	1.264 ± 0.027	1.394 ± 0.03
318.15 K	0.586 ± 0.013	0.651 ± 0.014	0.709 ± 0.015	0.795 ± 0.017	0.877 ± 0.019	0.972 ± 0.021	1.071 ± 0.023	1.182 ± 0.025	1.289 ± 0.028

Cc1ccc(NC(=O)NC(C)CCCC(C)C)cc1NC(=O)NC(C)CCCC(C)C (stereo not given) + CCCCC
Settings	viscosity [mPa·s]
293.15 K, 100 kPa, x1 = 0.0002	461 ± 43

C[C@H](N)C(=O)N[C@@H](CCC(N)=O)C(=O)O + O
Settings	viscosity [mPa·s]
298.15 K, 101 kPa, x1 = 0.0008999	0.919 ± 0.006

COc1ccccc1C + CCCCCOC(C)=O
Settings	viscosity [mPa·s]
298.15 K, 101 kPa, x1 = 0.5	0.8659 ± 0.0086

ClCCCCCCCl + Cc1ccccc1C
viscosity [mPa·s], 101 kPa
Settings	x1 = 0.09207	x1 = 0.1778	x1 = 0.2577	x1 = 0.3658	x1 = 0.469	x1 = 0.5509	x1 = 0.6697	x1 = 0.7481	x1 = 0.8853
308.15 K	0.731 ± 0.016	0.797 ± 0.017	0.859 ± 0.018	0.954 ± 0.02	1.049 ± 0.022	1.131 ± 0.024	1.253 ± 0.027	1.336 ± 0.029	1.493 ± 0.032
313.15 K	0.689 ± 0.015	0.75 ± 0.016	0.809 ± 0.017	0.901 ± 0.019	0.994 ± 0.021	1.073 ± 0.023	1.191 ± 0.025	1.272 ± 0.027	1.419 ± 0.03
318.15 K	0.652 ± 0.014	0.708 ± 0.015	0.767 ± 0.016	0.848 ± 0.018	0.932 ± 0.02	1.001 ± 0.021	1.1 ± 0.024	1.169 ± 0.025	1.287 ± 0.027

C=C(C)C(=O)OC + CCCCCO
viscosity [mPa·s], 101.3 kPa
Settings	298.15 K	308.15 K
x1 = 0.0449	3.018 ± 0.019	2.317 ± 0.014
x1 = 0.1463	2.195 ± 0.014	1.733 ± 0.011
x1 = 0.2463	1.658 ± 0.011	1.34 ± 0.009
x1 = 0.3476	1.29 ± 0.008	1.064 ± 0.007
x1 = 0.4311	1.077 ± 0.007	0.9 ± 0.006
x1 = 0.5019	0.941 ± 0.006	0.793 ± 0.005
x1 = 0.5439	0.876 ± 0.006	0.74 ± 0.005
x1 = 0.6459	0.753 ± 0.005	0.641 ± 0.005
x1 = 0.7431	0.674 ± 0.005	0.575 ± 0.004
x1 = 0.8477	0.619 ± 0.004	0.527 ± 0.004
x1 = 0.9445	0.591 ± 0.004	0.501 ± 0.004

C=C(C)C(=O)OC + CCCCO
viscosity [mPa·s], 101.3 kPa
Settings	298.15 K	308.15 K
x1 = 0.05	2.22 ± 0.014	1.726 ± 0.011
x1 = 0.1489	1.7 ± 0.011	1.355 ± 0.009
x1 = 0.2479	1.341 ± 0.009	1.092 ± 0.007
x1 = 0.3487	1.086 ± 0.007	0.9 ± 0.006
x1 = 0.4499	0.906 ± 0.006	0.761 ± 0.005
x1 = 0.5024	0.835 ± 0.006	0.705 ± 0.005
x1 = 0.5479	0.783 ± 0.005	0.664 ± 0.005
x1 = 0.6441	0.699 ± 0.005	0.596 ± 0.004
x1 = 0.7437	0.639 ± 0.005	0.546 ± 0.004
x1 = 0.8469	0.602 ± 0.004	0.513 ± 0.004
x1 = 0.9453	0.585 ± 0.004	0.496 ± 0.004
